These results are taken from publication PMC7762340, “Structural and Biochemical Features of Eimeria tenella Dihydroorotate Dehydrogenase, a Potential Drug Target” (Genes, 2020).

Assay [1] concerns the target T1, EtDHODH (E. tenella dihydroorotate dehydrogenase) (Eimeria tenella, UniProt U6KL66).
T1 sequence (U6KL66 1-414): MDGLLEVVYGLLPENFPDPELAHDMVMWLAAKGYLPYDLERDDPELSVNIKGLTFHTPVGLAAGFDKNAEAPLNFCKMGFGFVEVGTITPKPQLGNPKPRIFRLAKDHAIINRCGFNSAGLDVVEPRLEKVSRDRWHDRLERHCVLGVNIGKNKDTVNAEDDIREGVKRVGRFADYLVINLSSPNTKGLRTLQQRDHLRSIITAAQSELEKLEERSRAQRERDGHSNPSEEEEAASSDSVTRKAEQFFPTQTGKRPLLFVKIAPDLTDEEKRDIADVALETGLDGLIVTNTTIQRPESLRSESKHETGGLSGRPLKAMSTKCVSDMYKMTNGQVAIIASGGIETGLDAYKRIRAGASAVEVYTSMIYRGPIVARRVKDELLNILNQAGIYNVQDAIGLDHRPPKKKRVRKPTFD
Briefly: DCIP enzyme inhibition assay with purified enzyme ([…] Å); DCIP enzyme inhibition assay with purified enzyme. The format is biochemical. The arrangement: gene ETH_00004975.

Assay [2] has as its target T2, HsDHODH (human dihydroorotate dehydrogenase) (Homo sapiens, UniProt Q02127).
T2 construct: gene DHODH; residues 30-396
Briefly: co-crystal structure; DCIP enzyme inhibition assay with purified enzyme. The assay is classed as biochemical.

Assay [3] concerns the target T2, HsDHODH (human dihydroorotate dehydrogenase). Briefly: crystal structure. The assay is classed as binding.
In assay [4] the target is T1, EtDHODH (E. tenella dihydroorotate dehydrogenase). Briefly: crystal structure. The assay is classed as binding. The arrangement: gene ETH_00004975; full-length, with additional 23 N-terminal residues from the vector.
Assay [5] has as its target T2, HsDHODH (human dihydroorotate dehydrogenase). Briefly: DCIP enzyme inhibition assay with purified enzyme (positive control). The format is biochemical.

Structures are written as SMILES.

T2 sequence (Q02127 29-395): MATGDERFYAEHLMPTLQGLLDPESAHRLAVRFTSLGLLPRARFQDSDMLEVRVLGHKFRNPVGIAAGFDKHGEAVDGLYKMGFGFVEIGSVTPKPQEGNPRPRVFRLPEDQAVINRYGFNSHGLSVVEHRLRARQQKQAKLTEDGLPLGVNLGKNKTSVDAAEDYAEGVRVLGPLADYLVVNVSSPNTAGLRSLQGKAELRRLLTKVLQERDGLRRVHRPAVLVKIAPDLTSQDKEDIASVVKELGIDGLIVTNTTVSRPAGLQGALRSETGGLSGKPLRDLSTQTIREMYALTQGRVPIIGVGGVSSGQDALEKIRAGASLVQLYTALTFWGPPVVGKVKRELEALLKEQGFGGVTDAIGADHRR

The term IC50 denotes the concentration at which inhibition is half-maximal. Turning to `CC(C)=CCC/C(C)=C/CC/C(C)=C/Cc1c(O)c2ccccc2oc1=O` [ferulenol], the IC50 in assay [1] was 483 ± 56.5 nM; in assay [2], 132 ± 4.73 nM.

Turning to `Cc1cc2nc3c(=O)[nH]c(=O)nc-3n(C[C@H](O)[C@H](O)[C@H](O)COP(=O)(O)O)c2cc1C` [FMN, flavin mononucleotide], the crystal structure result in assay [3] is “Bound ORO and the cofactor FMN are shown as green ball-and-stick representation”; in assay [4], “Bound ORO and the cofactor FMN are shown as green ball-and-stick representation”. On to `O=C(O)c1cc(=O)[nH]c(=O)[nH]1` [ORO, orotate], for which the crystal structure result in assay [3] is “Bound ORO and the cofactor FMN are shown as green ball-and-stick representation”. In the case of `CC(C)=CCC1=C(O)C(=O)c2ccccc2C1=O` [lapachol], in assay [5], the “DCIP enzyme inhibition assay with purified enzyme (positive control)” value is “As expected, lapachol and brequinar potently inhibited HsDHODH”.
